Data taken from ChEMBL document CHEMBL1201862, “PubChem BioAssay data set” (2004).
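Exposure lasted 48 hours, with cells grown in 96-well plates and compounds tested at five concentrations. At the GI50, growth is halved.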 Active and inactive are the calls of the source. Rule as the data show it: active = GI50 up to about 1.1 µM and inactive = higher.

Tests used:
Experiment in all cases: NCI anticancer screen, dose series, 48 h
OVCAR-5 = test system: OVCAR-5
SW-620 = test system: SW-620
K562 = test system: K562
MOLT-4 = test system: MOLT-4
MCF7 = test system: MCF7
SK-MEL-2 = test system: SK-MEL-2
A549 = test system: A549
UO-31 = test system: UO-31
UACC-257 = test system: UACC-257
Hs-578T = test system: Hs-578T
CAKI-1 = test system: CAKI-1
EKVX = test system: EKVX
NCI-H460 = test system: NCI-H460
NCI-H23 = test system: NCI-H23
HT-29 = test system: HT-29
HOP-62 = test system: HOP-62
RXF 393 = test system: RXF 393
KM12 = test system: KM12
SN12C = test system: SN12C
SNB-75 = test system: SNB-75
A498 = test system: A498
CCRF-CEM = test system: CCRF-CEM
PC-3 = test system: PC-3
SK-MEL-28 = test system: SK-MEL-28
DU-145 = test system: DU-145
SK-MEL-5 = test system: SK-MEL-5
OVCAR-8 = test system: OVCAR-8
SF-295 = test system: SF-295
SNB-19 = test system: SNB-19
LOX IMVI = test system: LOX IMVI
HOP-92 = test system: HOP-92
HCC 2998 = test system: HCC 2998
M14 = test system: M14
NCI-H522 = test system: NCI-H522
NCI-H226 = test system: NCI-H226
IGROV-1 = test system: IGROV-1
HL-60 = test system: HL-60
OVCAR-3 = test system: OVCAR-3
UACC-62 = test system: UACC-62
T47D = test system: T47D
RPMI-8226 = test system: RPMI-8226
ACHN = test system: ACHN
MDA-N = test system: MDA-N
NCI/ADR-RES = test system: NCI/ADR-RES
U-251 = test system: U-251
MDA-MB-435 = test system: MDA-MB-435
SF-539 = test system: SF-539
SK-OV-3 = test system: SK-OV-3
BT-549 = test system: BT-549
SR = test system: SR
HCT-15 = test system: HCT-15
SF-268 = test system: SF-268
786-0 = test system: 786-0
HCT-116 = test system: HCT-116
COLO 205 = test system: COLO 205
TK-10 = test system: TK-10
MDA-MB-231 = test system: MDA-MB-231
OVCAR-4 = test system: OVCAR-4
Malme-3M = test system: Malme-3M

Structure (SMILES): O=C1C(Cl)=C(N2C(=O)CCCC2=O)C(=O)c2ccccc21
- GI50 (OVCAR-5): 18 µM (inactive)
- GI50 (SW-620): 20.9 µM (inactive)
- GI50 (K562): 2.7 µM (inactive)
- GI50 (MOLT-4): 17.9 µM (inactive)
- GI50 (MCF7): 16.8 µM (inactive)
- GI50 (SK-MEL-2): 22.5 µM (inactive)
- GI50 (A549): 22.1 µM (inactive)
- GI50 (UO-31): 11 µM (inactive)
- GI50 (UACC-257): 19.1 µM (inactive)
- GI50 (Hs-578T): 31.2 µM (inactive)
- GI50 (CAKI-1): 14 µM (inactive)
- GI50 (EKVX): 16.3 µM (inactive)
- GI50 (NCI-H460): 14.6 µM (inactive)
- GI50 (NCI-H23): 17.2 µM (inactive)
- GI50 (HT-29): 15.7 µM (inactive)
- GI50 (HOP-62): > 100 µM (inactive)
- GI50 (RXF 393): 15.7 µM (inactive)
- GI50 (KM12): 62.1 µM (inactive)
- GI50 (SN12C): 21.2 µM (inactive)
- GI50 (SNB-75): 16.4 µM (inactive)
- GI50 (A498): 16.8 µM (inactive)
- GI50 (CCRF-CEM): 4.13 µM (inactive)
- GI50 (PC-3): 19.6 µM (inactive)
- GI50 (SK-MEL-28): 13.9 µM (inactive)
- GI50 (DU-145): 16.6 µM (inactive)
- GI50 (SK-MEL-5): 16.6 µM (inactive)
- GI50 (OVCAR-8): 11.7 µM (inactive)
- GI50 (SF-295): 82.2 µM (inactive)
- GI50 (SNB-19): > 10 µM (inactive)
- GI50 (LOX IMVI): 20.6 µM (inactive)
- GI50 (HOP-92): 3.46 µM (inactive)
- GI50 (HCC 2998): 16.6 µM (inactive)
- GI50 (M14): 19.5 µM (inactive)
- GI50 (NCI-H522): 1.84 µM (inactive)
- GI50 (NCI-H226): 59.4 µM (inactive)
- GI50 (IGROV-1): 15.8 µM (inactive)
- GI50 (HL-60): 1.7 µM (inactive)
- GI50 (OVCAR-3): 31.6 µM (inactive)
- GI50 (UACC-62): 19.3 µM (inactive)
- GI50 (T47D): 22.9 µM (inactive)
- GI50 (RPMI-8226): 7.45 µM (inactive)
- GI50 (ACHN): 8.87 µM (inactive)
- GI50 (MDA-N): 17.2 µM (inactive)
- GI50 (NCI/ADR-RES): 22.6 µM (inactive)
- GI50 (U-251): 26 µM (inactive)
- GI50 (MDA-MB-435): 21.8 µM (inactive)
- GI50 (SF-539): 18.5 µM (inactive)
- GI50 (SK-OV-3): > 100 µM (inactive)
- GI50 (BT-549): 20.3 µM (inactive)
- GI50 (SR): 21.5 µM (inactive)
- GI50 (HCT-15): 11.6 µM
- GI50 (SF-268): 23.9 µM (inactive)
- GI50 (786-0): 16.9 µM (inactive)
- GI50 (HCT-116): 16.8 µM (inactive)
- GI50 (COLO 205): 6.37 µM (inactive)
- GI50 (TK-10): 17.5 µM (inactive)
- GI50 (MDA-MB-231): 20 µM (inactive)

Structure (SMILES): [N-]=[N+]=NC1(N=[N+]=[N-])C(=O)NN=C(c2ccccc2)C1=O (stereo not drawn)
- GI50 (SW-620): 50.9 µM (inactive)
- GI50 (K562): 38.9 µM (inactive)
- GI50 (MOLT-4): 28.8 µM (inactive)
- GI50 (MCF7): 62.7 µM (inactive)
- GI50 (A549): > 100 µM (inactive)
- GI50 (UO-31): > 100 µM (inactive)
- GI50 (UACC-257): 97.5 µM (inactive)
- GI50 (Hs-578T): > 100 µM (inactive)
- GI50 (EKVX): > 100 µM (inactive)
- GI50 (NCI-H460): > 100 µM (inactive)
- GI50 (NCI-H23): > 100 µM (inactive)
- GI50 (HT-29): > 100 µM (inactive)
- GI50 (HOP-62): > 100 µM (inactive)
- GI50 (RXF 393): 45.5 µM (inactive)
- GI50 (KM12): > 100 µM (inactive)
- GI50 (SN12C): > 100 µM (inactive)
- GI50 (SNB-75): > 100 µM (inactive)
- GI50 (A498): > 100 µM (inactive)
- GI50 (CCRF-CEM): 32.2 µM (inactive)
- GI50 (PC-3): > 100 µM (inactive)
- GI50 (SK-MEL-28): 16.3 µM (inactive)
- GI50 (DU-145): > 100 µM (inactive)
- GI50 (OVCAR-4): 57.4 µM (inactive)
- GI50 (OVCAR-8): 82.2 µM (inactive)
- GI50 (SF-295): 61.4 µM (inactive)
- GI50 (LOX IMVI): 37.7 µM (inactive)
- GI50 (HOP-92): > 100 µM (inactive)
- GI50 (HCC 2998): > 100 µM (inactive)
- GI50 (M14): > 100 µM (inactive)
- GI50 (NCI-H522): > 100 µM (inactive)
- GI50 (NCI-H226): > 100 µM (inactive)
- GI50 (IGROV-1): > 100 µM (inactive)
- GI50 (HL-60): 35.3 µM (inactive)
- GI50 (OVCAR-3): 68.4 µM (inactive)
- GI50 (UACC-62): 57.7 µM (inactive)
- GI50 (T47D): 31.1 µM (inactive)
- GI50 (RPMI-8226): 41.3 µM (inactive)
- GI50 (ACHN): > 100 µM (inactive)
- GI50 (MDA-N): 20.7 µM (inactive)
- GI50 (NCI/ADR-RES): > 100 µM (inactive)
- GI50 (U-251): > 100 µM (inactive)
- GI50 (MDA-MB-435): 18.4 µM (inactive)
- GI50 (SF-539): > 100 µM (inactive)
- GI50 (SK-OV-3): > 100 µM (inactive)
- GI50 (Malme-3M): 7.18 µM (inactive)
- GI50 (BT-549): > 100 µM (inactive)
- GI50 (SR): 32.7 µM (inactive)
- GI50 (HCT-15): > 100 µM
- GI50 (SF-268): 13 µM (inactive)
- GI50 (786-0): > 100 µM (inactive)
- GI50 (HCT-116): 16.8 µM (inactive)
- GI50 (COLO 205): > 100 µM (inactive)
- GI50 (TK-10): > 100 µM (inactive)
- GI50 (MDA-MB-231): > 100 µM (inactive)

Structure (SMILES): CCCN(CCC)C(=S)N/N=C/c1ccccn1
- GI50 (OVCAR-5): < 0.0482 µM (active)
- GI50 (SW-620): < 0.014 µM (active)
- GI50 (K562): < 0.01 µM (active)
- GI50 (MOLT-4): < 0.01 µM (active)
- GI50 (MCF7): < 0.01 µM (active)
- GI50 (SK-MEL-2): < 0.0385 µM (active)
- GI50 (A549): < 0.0138 µM (active)
- GI50 (UO-31): 0.0239 µM (active)
- GI50 (UACC-257): < 0.01 µM (active)
- GI50 (Hs-578T): 2.96 µM (inactive)
- GI50 (CAKI-1): 0.0169 µM (active)
- GI50 (EKVX): 0.046 µM (active)
- GI50 (NCI-H460): 0.0103 µM (active)
- GI50 (NCI-H23): < 0.01 µM (active)
- GI50 (HT-29): < 0.01 µM (active)
- GI50 (HOP-62): < 0.01 µM (active)
- GI50 (RXF 393): 0.0566 µM (active)
- GI50 (KM12): < 0.0139 µM (active)
- GI50 (SN12C): < 0.0195 µM (active)
- GI50 (SNB-75): 0.0586 µM (active)
- GI50 (A498): 0.0372 µM (active)
- GI50 (CCRF-CEM): < 0.01 µM (active)
- GI50 (PC-3): < 0.01 µM (active)
- GI50 (SK-MEL-28): 0.17 µM (active)
- GI50 (DU-145): 0.143 µM (active)
- GI50 (OVCAR-4): < 0.01 µM (active)
- GI50 (SK-MEL-5): < 0.0173 µM (active)
- GI50 (OVCAR-8): < 0.01 µM (active)
- GI50 (SF-295): 0.0468 µM (active)
- GI50 (SNB-19): 0.282 µM (active)
- GI50 (LOX IMVI): < 0.01 µM (active)
- GI50 (HOP-92): 0.169 µM (active)
- GI50 (HCC 2998): 0.398 µM (active)
- GI50 (M14): < 0.0125 µM (active)
- GI50 (NCI-H522): < 0.01 µM (active)
- GI50 (IGROV-1): < 0.01 µM (active)
- GI50 (HL-60): < 0.01 µM (active)
- GI50 (OVCAR-3): < 0.01 µM (active)
- GI50 (T47D): < 0.01 µM (active)
- GI50 (RPMI-8226): < 0.01 µM (active)
- GI50 (ACHN): < 0.01 µM (active)
- GI50 (MDA-N): 0.0989 µM (active)
- GI50 (NCI/ADR-RES): < 0.01 µM (active)
- GI50 (U-251): < 0.0138 µM (active)
- GI50 (MDA-MB-435): 0.17 µM (active)
- GI50 (SF-539): 0.118 µM (active)
- GI50 (SK-OV-3): < 0.012 µM (active)
- GI50 (Malme-3M): 0.0463 µM (active)
- GI50 (BT-549): 0.341 µM (active)
- GI50 (SR): < 0.01 µM (active)
- GI50 (HCT-15): < 0.01 µM
- GI50 (SF-268): < 0.0135 µM (active)
- GI50 (786-0): < 0.01 µM (active)
- GI50 (HCT-116): < 0.01 µM (active)
- GI50 (COLO 205): < 0.0186 µM (active)
- GI50 (TK-10): 0.0203 µM (active)
- GI50 (MDA-MB-231): < 0.01 µM (active)
